Data: PubChem BioAssay (NCI)
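A five-concentration, 48-hour dose response in 96-well plates underlies each endpoint, interpolated linearly between surrounding concentrations. TGI is the concentration that stops growth completely.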

Experiments:
Assay in all cases: NCI tumour cell line growth inhibition, 48 h
[1] = tested on: KM12 colon
[2] = tested on: TK-10 renal
[3] = tested on: RXF 393 renal
[4] = tested on: LXFL 529 NSCLC
[5] = tested on: CCRF-CEM leukemia
[6] = tested on: OVCAR-3 ovarian
[7] = tested on: DLD-1 colon
[8] = tested on: NCI-H226 lung
[9] = tested on: MALME-3M melanoma
[10] = tested on: SN12C renal
[11] = tested on: A549 NSCLC
[12] = tested on: SK-MEL-2 melanoma
[13] = tested on: OVCAR-8 ovarian
[14] = tested on: M14 melanoma
[15] = tested on: NCI-H522 lung
[16] = tested on: U251 CNS
[17] = tested on: NCI-H23 lung
[18] = tested on: SNB-75 CNS
[19] = tested on: A498 renal
[20] = tested on: SK-MEL-28 melanoma
[21] = tested on: SF-295 CNS
[22] = tested on: HOP-62 NSCLC
[23] = tested on: SF-268 CNS
[24] = tested on: SNB-78 CNS
[25] = tested on: ACHN renal
[26] = tested on: COLO 205 colon
[27] = tested on: MOLT-4 leukemia
[28] = tested on: LOX IMVI melanoma
[29] = tested on: XF 498 CNS
[30] = tested on: HOP-92 NSCLC
[31] = tested on: KM20L2 colon
[32] = tested on: HL-60(TB) leukemia
[33] = tested on: SR leukemia
[34] = tested on: RPMI-8226 leukemia
[35] = tested on: SF-539 CNS
[36] = tested on: 786-0 renal
[37] = tested on: HOP-18 NSCLC
[38] = tested on: UACC-62 melanoma
[39] = tested on: SK-MEL-5 melanoma
[40] = tested on: CAKI-1 renal
[41] = tested on: OVCAR-5 ovarian
[42] = tested on: NCI-H460 lung
[43] = tested on: M19-MEL melanoma
[44] = tested on: OVCAR-4 ovarian
[45] = tested on: HCC-2998 colon
[46] = tested on: SK-OV-3 ovarian
[47] = tested on: UO-31 renal
[48] = tested on: SNB-19 CNS
[49] = tested on: IGROV1 ovarian
[50] = tested on: HCT-15 colon
[51] = tested on: HCT-116 colon
[52] = tested on: UACC-257 melanoma
[53] = tested on: HT29 colon
[54] = tested on: DMS 114 small cell lung
[55] = tested on: DMS 273 small cell lung
[56] = tested on: EKVX NSCLC
[57] = tested on: K-562 leukemia
[58] = tested on: SW-620 colon
[59] = tested on: RXF-631 renal

Measured: TGI

N#Cc1ccc(Oc2ccccc2)cc1C#N
56.9 µM: [5]
34.5 µM: [55]
43.3 µM: [50]
59.1 µM: [54]
38.7 µM: [28]
> 100 µM: [1] | [2] | [3] | [4] | [6] | [7] | [8] | [9] | [10] | [11] | [12] | [13] | [14] | [16] | [17] | [18] | [19] | [20] | [21] | [22] | [23] | [24] | [25] | [27] | [29] | [30] | [31] | [32] | [34] | [35] | [36] | [37] | [38] | [39] | [40] | [41] | [42] | [43] | [44] | [45] | [46] | [47] | [48] | [49] | [51] | [52] | [53] | [56] | [57]
49.7 µM: [33]
68.6 µM: [26]
57.2 µM: [15]

NC(=O)c1ccc([N+](=O)[O-])cc1
> 100 µM: [1] | [2] | [3] | [4] | [5] | [6] | [7] | [58] | [8] | [9] | [10] | [11] | [12] | [13] | [14] | [15] | [16] | [17] | [18] | [19] | [20] | [21] | [22] | [23] | [24] | [26] | [27] | [28] | [29] | [31] | [34] | [35] | [59] | [36] | [38] | [39] | [40] | [42] | [43] | [45] | [46] | [47] | [48] | [49] | [50] | [52] | [53] | [54] | [55] | [56] | [57]

COc1ccc(O)cc1C(O)c1ccccc1 (centres undefined)
> 100 µM: [1] | [2] | [3] | [4] | [5] | [6] | [7] | [58] | [8] | [9] | [10] | [11] | [12] | [13] | [14] | [15] | [16] | [17] | [18] | [19] | [20] | [21] | [22] | [23] | [24] | [25] | [26] | [27] | [28] | [29] | [30] | [31] | [32] | [35] | [36] | [37] | [38] | [39] | [40] | [41] | [42] | [43] | [44] | [45] | [46] | [47] | [48] | [49] | [50] | [51] | [52] | [53] | [54] | [55] | [56] | [57]
